Laboratory results from patent publication US12433876B2, “Septin inhibitors for treatment of cancers” (UNIVERSITY OF ROCHESTER, priority 2019, dated 2025).

System: EGFR
Assay: Western blot of EGFR expression
Type: cell-based
Conditions: UR214-7 33 μM, UR214-9 33 μM; 24 hours
Experimental: Cell lines, Culture, and Reagents. Cells were maintained in either DMEM (SKOV-3, KLE, OVCAR-3, OVCAR8-C5 and IGROV-1) or RPMI-1640 (ECC-1 and HCH-1), supplemented with 10% fetal calf serum (or 20% for OVCAR-3), penicillin (100 units/mL), and streptomycin (100 μg/mL) at 37° C. with 5% CO2 in a humidified incubator. Antibodies were purchased from Abcam (septin-2; ab179436) and Cell Signaling Technology; ERK (9102), p-ERK (4370), -actin (3700), u-Tubulin (2144), EGFR (4267) and HER2 (4290). FCF was purchased from Abcam. All other chemicals were from Sigma Aldrich. Synthesis of Derivaties. […] The reaction was monitored using thin-layer chromatography plates with DCM-MeOH or pure ethyl acetate as eluent. Spots were monitored in a UV chamber. […] Quantitative Real-Time PCR. […] Quantitative real-time PCR was conducted using QuantStudio 12 K Flex Real-Time PCR System (ABI) and the Taqman Gene Expression Assay (ABI) consisting of the FAM-labeled probes as follows: SEPT2 (Hs01565417_ml); WFDC2 (Hs00899484_ml); TBP (Hs00427620_ml) or B2M (Hs00187842_ml), which was used as reference for normalization. […] Cell viability, proliferation, and cellular apoptosis were measured using the MTS (Promega), BrdU cell proliferation (Cell Signaling Technology), and Caspase-Glo 3/7 apoptosis detection (Promega) assays, following the respective manufacturer's recommendations with suitable modification. […]

O=C(Nc1cc(Cl)nc(Cl)c1)Nc1cccc(SC(F)(F)F)c1F [UR214-9]
EGFR expression: did not have an effect
